Tests used:
[1] = test system: spontaneous hypertensive rat; experiment: Severity of cardiac myocyte histopathologic lesions graded by light microscopy; assay type: in vivo; conditions: scale of 0 to 3; 7 weekly injections; doxorubicin 1 mg/kg i.v., dexrazoxane 50 mg/kg i.p.
Description: (§1) Cardiac response was induced by treatment with doxorubicin (DX) 1 mg/kg either alone or 30 min after an i.p. injection of dexrazoxane (ICRF) 50 mg/kg as described in the Examples infra. Treatment with ICRF alone was also administered. The treatment comprised of 7 weekly injections and samples were taken within 24 h after the final injection.
Doxorubicin is a marketed anthracycline anticancer drug that causes a serious chronic cardiac toxicity. The spontaneous hypertensive rat is a useful animal model to study this toxicity. Furthermore by incorporating a cardioprotectant in the study design, the association of protein markers with the undesirable cardiotoxicity of the cardiotoxic agent is strengthened. Pretreatment with the intracellular iron chelating compound dexrazoxane (also referred to as ICRF-187) provides significant cardioprotection against clinical doxorubicin-induced cardiotoxicity and the drug has been FDA approved for this indication.
Samples from animals treated to induce cardiac reponse or treated with a cardioprotectant can be collected, prepared and analysed as described herein. […]
The severity of cardiac myocyte histopathologic lesions (cytoplasmic vacuolization and myofibrillar loss) was graded semiquantitatively by light microscopy on a scale of 0 to 3. […] Plasma cardiac troponin T concentrations were measured by chemiluminescent immunoassay. […]

[2] = test system: Cardiac Response-Associated Features (CRFs) in blood; experiment: 2D gel electrophoresis of blood: CRFs differentially expressed in treated vs control animals (fold change); assay type: in vivo, rat
Description: Using the following procedure, proteins in blood samples from control animals and animals having cardiac response were separated by isoelectric focusing followed by SDS-PAGE and analyzed. Serial samples were taken over time. Parts 6.1.2 to 6.1.15 (inclusive) of the procedure set forth are hereby designated as the “Reference Protocol”
as §1
Samples from animals treated to induce cardiac reponse or treated with a cardioprotectant can be collected, prepared and analysed as described herein. In the studies provided herein, animals were administered an intravenous injection of either (i) doxorubicin 1 mg/kg alone; (ii) doxorubicin 1 mg/kg 30 min after an i.p. injection of dexrazoxane 50 mg/kg or (iii) treated with dexrazoxane 50 mg/kg alone. Control groups received saline only. 7 weekly injections were administered and samples were collected 24 h after the final injection. Plasma was collected for discovery of novel biomarkers of cardiac damage using 2-D gel electrophoresis and for measurement of cardiac specific troponin T levels. Tissues were collected for histopathological confirmation of cardiac tissue injury.
A protein assay (Pierce BCA Cat # 23225) was performed on each serum sample as received. Prior to protein separation, each sample was processed for selective depletion of certain proteins, in order to enhance and simplify protein separation and facilitate analysis by removing proteins that may interfere with or limit analysis of proteins of interest. See International Patent Application No. PCT/GB99/01742, filed Jun. 1, 1999, which is incorporated by reference in its entirety, with particular reference to the experimental protocol.
Removal of albumin, haptoglobin, transferrin and immunoglobin G (IgG) from blood (“blood depletion”) was achieved by an affinity chromatography purification step in which the sample was passed through a series of ‘Hi-Trap’ columns containing immobilized antibodies for selective removal of albumin, haptoglobin and transferrin, and protein G for selective removal of immunoglobin G. Two affinity columns in a tandem assembly were prepared by coupling antibodies to protein G-sepharose contained in Hi-Trap columns (Protein G-Sepharose Hi-Trap columns (1 ml) Pharmacia Cat. No. 17-0404-01). This was done by circulating the following solutions sequentially through the columns: (1) Dulbecco's Phosphate Buffered Saline (Gibco BRL Cat. No. 14190-094); (2) concentrated antibody solution; (3) 200 mM sodium carbonate buffer, pH 8.35; (4) cross-linking solution (200 mM sodium carbonate buffer, pH 8.35, 20 mM dimethylpimelimidate); and (5) 500 mM ethanolamine, 500 mM NaCl. A third (un-derivatised) protein G Hi-Trap column was then attached to the lower end of the tandem column assembly.
The chromatographic procedure was automated using an Akta Fast Protein Liquid Chromatography (FPLC) System such that a series of up to seven runs could be performed sequentially. The samples were passed through the series of 3 Hi-Trap columns in which the affinity chromatography media selectively bind the above proteins thereby removing them from the sample. Fractions (typically 3 ml per tube) were collected of unbound material (“Flowthrough fractions”) that eluted through the column during column loading and washing stages and of bound proteins (“Bound/Eluted fractions”) that were eluted by step elution with Immunopure Gentle Ag/Ab Elution Buffer (Pierce Cat. No. 21013). The eluate containing unbound material was collected in fractions which were pooled, desalted/concentrated by centrifugal ultrafiltration and stored to await further analysis by 2D PAGE. […]

**Q.** Which “average lesion score (cytoplasmic vacuolization and myofibrillar loss)” value [1] does the source give for `COc1cccc2c1C(=O)c1c(O)c3c(c(O)c1C2=O)C[C@@](O)(C(=O)CO)C[C@@H]3O[C@H]1C[C@H](N)[C@H](O)[C@H](C)O1` [DX, doxorubicin] here?
**A.** The value was 2.1.

**Q.** And the “FC DX vs Control” value ([2]; CRF 2, pI 5.7, MW 12,367 Da, P 0.010)?
**A.** The value was −10.29.

**Q.** And the “FC DX vs Control” value ([2]; CRF 4, pI 5.2, MW 15,589 Da, P 1.7E-04)?
**A.** Its value is −9.20.

**Q.** What about the “FC DX vs Control” value ([2]; CRF 6, pI 4.6, MW 34,921 Da, P 1.0E-03) of the same compound?
**A.** Its value is −7.77.

**Q.** What about the “FC DX vs Control” value ([2]; CRF 9, pI 5.2, MW 15,591 Da, P 1.5E-03) of the same compound?
**A.** The value was −5.72.

**Q.** And the “FC DX vs Control” value ([2]; CRF 10, pI 5, MW 51,899 Da, P 0.007)?
**A.** The value was −6.99.

**Q.** And the “FC DX vs Control” value ([2]; CRF 19, pI 5.7, MW 68,576 Da, P 3.7E-04)?
**A.** The value was −5.12.

**Q.** And the “FC DX vs Control” value ([2]; CRF 44, pI 5.8, MW 52,589 Da, P 1.1E-03)?
**A.** Its value is 4.83.

**Q.** And the “FC DX vs Control” value ([2]; CRF 47, pI 4.4, MW 11,368 Da, P 0.010)?
**A.** Its value is 6.81.

**Q.** What about the “FC DX vs Control” value ([2]; CRF 58, pI 6.8, MW 34,063 Da, P 0.003) of the same compound?
**A.** Its value is 5.43.

**Q.** And the “FC DX vs Control” value ([2]; CRF 69, pI 5.2, MW 54,619 Da, P 0.005)?
**A.** Its value is −3.54.

**Q.** What about the “FC DX vs Control” value ([2]; CRF 79, pI 6.8, MW 80,678 Da, P 1.6E-04) of the same compound?
**A.** The value was −4.51.

**Q.** And the “FC DX vs Control” value ([2]; CRF 82, pI 7.6, MW 77,393 Da, P 2.9E-04)?
**A.** The value was −9.06.

**Q.** What about the “FC DX vs Control” value ([2]; CRF 84, pI 4.8, MW 73,524 Da, P 1.1E-03) of the same compound?
**A.** The value was −8.60.

**Q.** What about the “FC DX vs Control” value ([2]; CRF 90, pI 5.2, MW 67,336 Da, P 0.005) of the same compound?
**A.** The value was −3.93.

**Q.** And the “FC DX vs Control” value ([2]; CRF 92, pI 6.0, MW 63,037 Da, P 0.006)?
**A.** Its value is −8.26.

**Q.** What about the “FC DX vs Control” value ([2]; CRF 103, pI 5, MW 56,471 Da, P 0.007) of the same compound?
**A.** The value was −6.02.

**Q.** And the “FC DX vs Control” value ([2]; CRF 104, pI 7, MW 53,989 Da, P 0.003)?
**A.** Its value is −11.48.

**Q.** And the “FC DX vs Control” value ([2]; CRF 112, pI 7.1, MW 47,499 Da, P 0.006)?
**A.** The value was 4.92.

**Q.** And the “FC DX vs Control” value ([2]; CRF 115, pI 7.1, MW 38,136 Da, P 2.3E-04)?
**A.** Its value is 3.55.

**Q.** And the “FC DX vs Control” value ([2]; CRF 118, pI 6.5, MW 33,117 Da, P 3.4E-04)?
**A.** The value was −4.82.

**Q.** And the “FC DX vs Control” value ([2]; CRF 122, pI 5.3, MW 24,915 Da, P 0.003)?
**A.** Its value is 3.98.

**Q.** And the “FC DX vs Control” value ([2]; CRF 127, pI 4.8, MW 23,325 Da, P 0.006)?
**A.** The value was 5.25.

**Q.** What about the “FC DX vs Control” value ([2]; CRF 129, pI 5.4, MW 17,765 Da, P 0.010) of the same compound?
**A.** Its value is 4.29.

**Q.** What about the “FC DX vs Control” value ([2]; CRF 130, pI 4.8, MW 14,082 Da, P 0.009) of the same compound?
**A.** The value was −4.56.

**Q.** What about the “FC DX vs Control” value ([2]; CRF 131, pI 4.3, MW 11,917 Da, P 0.009) of the same compound?
**A.** The value was 4.28.

**Q.** And the “FC DX vs Control” value ([2]; CRF 134, pI 5.1, MW 51,125 Da, P 0.009)?
**A.** Its value is 7.99.

**Q.** And the “FC DX vs Control” value ([2]; CRF 135, pI 7.3, MW 85,176 Da, P 1.2E-05)?
**A.** The value was 4.77.

**Q.** What about the “FC DX vs Control” value ([2]; CRF 142, pI 5.4, MW 105,458 Da, P 0.007) of the same compound?
**A.** Its value is −5.30.

**Q.** What about the “FC DX vs Control” value ([2]; CRF 144, P 3.7E-04) of the same compound?
**A.** The value was −3.70.

**Q.** And the “FC DX vs Control” value ([2]; CRF 145, P 4.5E-04)?
**A.** The value was 3.68.

**Q.** And the “FC DX vs Control” value ([2]; CRF 146, P 6.2E-04)?
**A.** Its value is −4.19.

**Q.** And the “FC DX vs Control” value ([2]; CRF 147, P 0.002)?
**A.** Its value is −4.61.

**Q.** And the “FC DX vs Control” value ([2]; CRF 148, P 0.002)?
**A.** The value was −5.11.

**Q.** And the “FC DX vs Control” value ([2]; CRF 149, P 0.002)?
**A.** Its value is −3.78.

**Q.** And the “FC DX vs Control” value ([2]; CRF 150, pI 4.11, MW 47828 Da, P 0.003)?
**A.** The value was −8.39.

**Q.** And the “FC DX vs Control” value ([2]; CRF 151, P 0.003)?
**A.** Its value is 3.50.

**Q.** And the “FC DX vs Control” value ([2]; CRF 152, P 0.003)?
**A.** The value was −3.97.

**Q.** What about the “FC DX vs Control” value ([2]; CRF 153, P 0.004) of the same compound?
**A.** The value was −4.57.

**Q.** What about the “FC DX vs Control” value ([2]; CRF 154, pI 7.79, MW 55965 Da, P 0.004) of the same compound?
**A.** Its value is 5.39.

**Q.** And the “FC DX vs Control” value ([2]; CRF 155, P 0.004)?
**A.** The value was −3.84.

**Q.** What about the “FC DX vs Control” value ([2]; CRF 156, pI 6.89, MW 78237 Da, P 0.005) of the same compound?
**A.** The value was −3.99.

**Q.** And the “FC DX vs Control” value ([2]; CRF 157, P 0.005)?
**A.** Its value is −3.54.

**Q.** And the “FC DX vs Control” value ([2]; CRF 158, P 0.005)?
**A.** Its value is −4.59.

**Q.** And the “FC DX vs Control” value ([2]; CRF 159, P 0.006)?
**A.** Its value is 4.04.

**Q.** What about the “FC DX vs Control” value ([2]; CRF 160, P 0.006) of the same compound?
**A.** Its value is −6.43.

**Q.** And the “FC DX vs Control” value ([2]; CRF 161, P 0.006)?
**A.** The value was 4.58.

**Q.** And the “FC DX vs Control” value ([2]; CRF 162, P 0.006)?
**A.** Its value is −4.37.

**Q.** What about the “FC DX vs Control” value ([2]; CRF 163, P 0.006) of the same compound?
**A.** The value was 5.15.

**Q.** What about the “FC DX vs Control” value ([2]; CRF 164, pI 4.51, MW 72286 Da, P 0.007) of the same compound?
**A.** The value was 4.75.

**Q.** And the “FC DX vs Control” value ([2]; CRF 165, P 0.007)?
**A.** Its value is −5.52.

**Q.** What about the “FC DX vs Control” value ([2]; CRF 166, P 0.008) of the same compound?
**A.** Its value is −3.86.

**Q.** What about the “FC DX vs Control” value ([2]; CRF 167, P 0.008) of the same compound?
**A.** The value was 3.77.

**Q.** What about the “FC DX vs Control” value ([2]; CRF 168, P 0.009) of the same compound?
**A.** The value was 4.20.

**Q.** What does the source list for `C[C@@H](CN1CC(=O)NC(=O)C1)N1CC(=O)NC(=O)C1` [ICRF, dexrazoxane]?
**A.** average lesion score (cytoplasmic vacuolization and myofibrillar loss) [1]: 0; FC ICRF vs Control ([2]; CRF 28, pI 5.7, MW 26,409 Da, P 0.004): −2.93; FC ICRF vs Control ([2]; CRF 56, pI 4.9, MW 48,318 Da, P 0.004): 3.12; FC ICRF vs Control ([2]; CRF 162, P 0.003): −3.47

Reference: patent publication US20030092197A1, “Proteins, genes and their use for diagnosis and treatment of cardiac response” (priority 2000, published 2003)
